These are literature values, as cited in patent publication US20220287355A1, “ORAL PRODUCTS WITH SELF-EMULSIFYING SYSTEM” (NICOVENTURES TRADING LIMITED, priority 2021, published 2022).

Experiment in data set [1]: not given
This is another data set of the same source.

In the case of `C=C(C)[C@@H]1CCC(C)=C[C@H]1c1c(O)cc(CCCCC)cc1O` [CBD, cannabidiol], the “solubility in an aqueous environment (e.g., saliva)” value was “insoluble”. For the same compound, the logP value entry in data set [1] is listed as “about 6.5”.
